What was measured:
crabgrass = test: Test B pre/postemergence crabgrass; format: in vivo, Digitaria sanguinalis
How it was run: (§1)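 Test chemicals in a non-phytotoxic solvent mixture with surfactant were sprayed preemergence onto planted seeds and postemergence onto plants 2 to 18 cm tall (1- to 4-leaf stage). After twelve to sixteen days in a greenhouse, injury was visually rated against untreated controls from 0 (no effect) to 10 (complete control).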

giant foxtail = test: Test B pre/postemergence giant foxtail; format: in vivo, Setaria faberii
How it was run: as §1

wheat = test: Test B pre/postemergence wheat; format: in vivo, Triticum aestivum
How it was run: as §1

duck salad = test: Test B flood test duck salad; format: in vivo, Heteranthera limosa
How it was run: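 Plants were grown to the 2-leaf stage before treatment with test chemical, then held in a greenhouse for twelve to sixteen days. Injury was visually rated against untreated controls on a 0–10 scale, where 0 is no effect and 10 is complete control.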

[1] = Postemergence, Rate 62 g/ha, scale 0 to 10, 0 is no effect, 10 is complete control
[2] = Postemergence, Rate 250 g/ha, scale 0 to 10, 0 no effect, 10 complete control
[3] = Preemergence, Rate 62 g/ha, scale 0 to 10, 0 is no effect, 10 is complete control
[4] = Preemergence, Rate 125 g/ha, scale 0 to 10 (0 no effect, 10 complete control)
[5] = Preemergence, Rate 250 g/ha, scale of 0 to 10 where 0 is no effect and 10 is complete control
[6] = Preemergence, Rate 500 g/ha, scale 0 (no effect) to 10 (complete control)
[7] = Rate 125 g/ha, Postemergence, scale 0 to 10, 0 no effect, 10 complete control
[8] = Rate 500 g/ha, Postemergence, 0 to 10 scale (0 no effect, 10 complete control)
[9] = Rate 125 g/ha, Postemergence section (flood test species), scale 0 to 10, 0 no effect, 10 complete control
[10] = Rate 500 g/ha, Postemergence section of Table B, 0 to 10 scale (0 no effect, 10 complete control)
[11] = flood test, listed under Postemergence, Rate 250 g/ha, scale 0 to 10, 0 no effect, 10 complete control

Structure (SMILES) | Crabgrass plant response rating (crabgrass; [1]) | Crabgrass plant response rating (crabgrass; [2]) | Plant response rating, Crabgrass (crabgrass; [3]) | Plant response rating, Crabgrass (crabgrass; [4]) | Plant response rating, Crabgrass (crabgrass; [5]) | Crabgrass plant response rating (crabgrass; [6]) | Crabgrass plant response rating (crabgrass; [7]) | Crabgrass plant response rating (crabgrass; [8]) | Giant foxtail plant response rating (giant foxtail; [1]) | Giant foxtail plant response rating (giant foxtail; [2]) | Plant response rating, Giant foxtail (giant foxtail; [3]) | Plant response rating, Giant foxtail (giant foxtail; [4]) | Plant response rating, Giant foxtail (giant foxtail; [5]) | Giant foxtail plant response rating (giant foxtail; [6]) | Giant foxtail plant response rating (giant foxtail; [7]) | Giant foxtail plant response rating (giant foxtail; [8]) | Wheat plant response rating (wheat; [1]) | Wheat plant response rating (wheat; [2]) | Plant response rating, Wheat (wheat; [3]) | Plant response rating, Wheat (wheat; [4]) | also measured
COc1ccc(-n2c(=O)on(C(=O)N(c3ccc(F)cc3)C(C)C)c2=O)c(C)c1 [Compound 35] | 0 | 1 | 3 | 3 | 6 | 10 | 0 | 7 | 0 | 1 | 3 | 7 | 10 | 10 | 0 | 7 | 0 | 0 | 0 | 0 | Plant response rating, Wheat (wheat; [5]): 0; Wheat plant response rating (wheat; [6]): 0; Wheat plant response rating (wheat; [7]): 0; Ducksalad plant response rating (duck salad; [1]): 0; Ducksalad plant response rating (duck salad; [9]): 0; Ducksalad plant response rating (duck salad; Rate 125 g/ha, Pre-emergence, flood test species, scale 0 to 10 where 0 is no effect and 10 is complete control): 0; Ducksalad plant response rating (duck salad; Rate 250 g/ha, headed Pre-emergence (flood test species), scale 0 to 10 (0 no effect, 10 complete control)): 0; Ducksalad plant response rating (duck salad; [10]): 0; Plant response rating, Ducksalad (duck salad; Rate 500 g/ha, headed Pre-emergence (flood test species), scale 0 to 10 (0 no effect, 10 complete control)): 0; Ducksalad plant response rating (duck salad; Rate 1000 g/ha, Pre-emergence (as headed), scale 0 to 10): 0; Ducksalad plant response rating (duck salad; [11]): 0
Cc1ccccc1-n1c(=O)on(C(=O)N(c2ccc(Cl)cc2)C(C)C)c1=O [Compound 41] | 0 | 5 | 3 | 4 | 8 | 10 | 1 | 7 | 0 | 1 | 4 | 9 | 10 | 10 | 0 | 1 | 0 | 0 | 0 | 0 | Plant response rating, Wheat (wheat; [5]): 0; Wheat plant response rating (wheat; [6]): 0; Wheat plant response rating (wheat; [7]): 0; Ducksalad plant response rating (duck salad; [1]): 0; Ducksalad plant response rating (duck salad; [9]): 0; Ducksalad plant response rating (duck salad; [10]): 0; Ducksalad plant response rating (duck salad; [11]): 0

From US6737383B1, “Herbicidal oxadiazolidines” (priority 1999, dated 2004)
